# Measured values: ChEMBL document CHEMBL4184129, “Inhibitors of nuclease and redox activity of apurinic/apyrimidinic endonuclease 1/redox effector factor 1 (APE1/Ref-1)” (Bioorg Med Chem, 2017)
# Legend:
# [1] = target: T1, DNA repair nuclease/redox regulator APEX1 (Homo sapiens, UniProt P27695); test: Inhibition of nuclease activity of APE1 in human glioblastoma cells assessed as reduction in AP site DNA cleavage; assay type: cell-based
# [2] = target: T1, DNA repair nuclease/redox regulator APEX1; test: Inhibition of human APE1 using a 5'-TAMRA labelled THF abasic site double-stranded oligodeoxynucleotide as substrate in presence of Mg2+ by fluorescence polarization displacement assay
# [3] = target: T1, DNA repair nuclease/redox regulator APEX1; test: Inhibition of human APE1 measured every 5 mins for 60 mins by FAM fluorophore based fluorescence assay
# [4] = target: T1, DNA repair nuclease/redox regulator APEX1; test: Inhibition of N-terminal hexa-His tagged human APE1 expressed in Escherichia coli BL21 (Rosetta) using fluorescein-dabcyl-containing oligonucleotide as substrate measured over 5 mins by high-throughput fluorescence assay
# [5] = target: T1, DNA repair nuclease/redox regulator APEX1; test: Inhibition of APE1 in human HeLa cells assessed as reduction in AP site cleavage 5'-[gamma-32P]CTCGCAAGUGGGTACCGA-3' as substrate after 1 hr; assay type: cell-based
# [6] = target: T1, DNA repair nuclease/redox regulator APEX1; test: Inhibition of His-tagged human APE1 expressed in Escherichia coli M15 assessed as reduction in cleavage of 26 mer substrate to 13 mer products pre-incubated for 30 mins before substrate addition for 15 mins using 5' end [32P] AP site containing 26 mer oligonucleotide by polyacrylamide gel electrophoresis
# [7] = target: T1, DNA repair nuclease/redox regulator APEX1; test: Inhibition of human APE1 assessed as reduction in abasic sites DNA cleavage using 6-FAM/TAMRA labelled 17-Tphi as substrate by fluorescence-based assay
# [8] = target: T1, DNA repair nuclease/redox regulator APEX1; test: Inhibition of […] activity of full length N-terminal hexa-His SUMO-fused human APE1 using HEX-labeled THF oligonucleotide as substrate preincubated for 30 to 120 mins followed by substrate addition measured after 15 mins by fluorescence assay
# [9] = target: T1, DNA repair nuclease/redox regulator APEX1; test: Inhibition of recombinant human APE1 using 5'-F-GCCCCCXGGGGACGTACGATATCCCGCTCC-3' as substrate preincubated for 10 mins followed by substrate addition measured at 5 mins intervals for 30 mins by fluorescence-based assay
# [10] = target: T1, DNA repair nuclease/redox regulator APEX1; test: Inhibition of recombinant human APE1 using a 5'-FAM/3'-Dabsyl labelled double-stranded DNA as substrate after 30 mins by fluorescence-based assay
# [11] = tested on: Panel NCI-60 (60 carcinoma cell lines); test: Growth inhibition in human NCI60 cells after 72 hrs by CellTiterGlo assay; assay type: functional
# [12] = target: T1, DNA repair nuclease/redox regulator APEX1; test: Inhibition of APE1 in human HeLa cells; assay type: cell-based
# [13] = target: T1, DNA repair nuclease/redox regulator APEX1; test: Binding affinity to full length human APE1 expressed in Escherichia coli BL21/DE3
# T1 sequence (P27695 whole entry): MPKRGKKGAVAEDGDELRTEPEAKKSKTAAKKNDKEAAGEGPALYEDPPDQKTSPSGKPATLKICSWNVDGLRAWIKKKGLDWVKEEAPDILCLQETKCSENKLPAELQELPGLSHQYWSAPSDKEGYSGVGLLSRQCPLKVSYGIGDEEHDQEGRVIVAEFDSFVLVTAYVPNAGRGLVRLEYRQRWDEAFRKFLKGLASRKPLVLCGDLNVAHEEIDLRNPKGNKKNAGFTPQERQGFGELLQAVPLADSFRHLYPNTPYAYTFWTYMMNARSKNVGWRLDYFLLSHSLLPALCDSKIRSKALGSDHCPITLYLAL
smiles,measurement,setting,value
O=c1oc(-c2ccccc2F)nc2cc(Cl)ccc12,IC50,[1],1600 nM
COc1cc2c(ccc3cc(OC)c(OC)c(O)c32)cc1O,IC50,[2],400 nM
CC1=C/C(=C(/c2ccc(O)c(C)c2)c2ccccc2C(=O)O)C=CC1=O,IC50,[3],1700 nM
Cc1ccc(C)n1-c1ccc(OCC(=O)O)cc1,IC50,[4],1700 nM
Cc1cc(C)c2c(N)c3cccc(C)c3nc2n1,IC50,[4],2100 nM
Nc1c(S(N)(=O)=O)cc(S(N)(=O)=O)cc1S(N)(=O)=O,IC50,[3],1400 nM
CCOC(=O)c1cc(-c2ccc(/C=C3/C(=O)N(c4ccc(C(=O)O)cc4)N=C3C)o2)ccc1Cl,IC50,[2],6800 nM
O=C1NC(=O)N(Cc2ccco2)C(=O)/C1=C/C=C/c1ccco1,IC50,[2],2800 nM
O=C(O)c1cc2cccc([N+](=O)[O-])c2[nH]1,IC50,[5],3060 nM
O=C(Nc1cccc(Cl)c1)c1noc2c1CCC2,IC50,[4],1600 nM
COc1cccc(CNC(=O)c2cccc(C(=O)O)c2OC)c1,IC50,[6],19000 nM
C=C1S/C(=N\c2ccccc2Cl)N(C(=O)c2sc3ccccc3c2Cl)C12CCCCC2,IC50,[1],1400 nM
COc1ccc(CNC(=O)c2cccc(C(=O)O)c2OC)cc1OC,IC50,[6],18000 nM
Cc1sc(Nc2cc(Cl)cc(Cl)c2)nc1-c1ccc(-c2ccccc2F)cc1,IC50,[1],900 nM
c1cc2ccc3cc2cc1CNCCNCCNCc1ccc2ccc(cc2c1)CNCCNCCNC3,IC50,[7],57 nM
CCCCCCCCC/C(=C\C1=C(C)C(=O)C(OC)=C(OC)C1=O)C(=O)NOC,IC50,[8],8500 nM
O=S(=O)(Oc1ccc(-c2ccc(OS(=O)(=O)c3ccc(Cl)c(Cl)c3)cc2)cc1)c1ccc(Cl)c(Cl)c1,IC50,[1],1800 nM
CC(C)(C)c1ccc(S(=O)(=O)Oc2ccc(-c3ccc(Oc4c(Cl)cccc4[N+](=O)[O-])cc3)cc2)cc1,IC50,[1],1700 nM
COc1c(C(=O)O)cccc1C(=O)NCc1ccc(Cl)c(Cl)c1,IC50,[6],18000 nM
O=C(OCC(=O)N1NC(c2ccc3ccccc3c2)=C[C@@H]1c1ccccc1)c1ccc([N+](=O)[O-])s1,IC50,[9],3000 nM
O=C(O)CC[C@H]1N[C@@]2(C(=O)Nc3c(Cl)cccc32)[C@H]2C(=O)N(Cc3ccc4c(c3)OCO4)C(=O)[C@@H]12,IC50,[10],1800 nM
c1cc2ccc3cc2cc1CNCCOCCNCc1ccc2ccc(cc2c1)CNCCOCCNC3,IC50,[7],55 nM
CC(C)(C)c1ccc(OC(=O)c2sc3ccccc3c2Cl)c(C(C)(C)C)c1,IC50,[1],800 nM
O=C(c1cc2ccccc2o1)[C@@H](O)c1nc2ccccc2s1,IC50,[9],2000 nM
Cc1sc(-c2ccc(Cl)cc2)nc1-c1ccc(-c2ccccc2F)cc1,IC50,[1],1300 nM
COc1c(C(=O)O)cccc1C(=O)NCc1cccc(Cl)c1,IC50,[6],16000 nM
O=c1oc(-c2ccc(Cl)cc2Cl)nc2ccc([N+](=O)[O-])cc12,IC50,[1],2000 nM
CCn1c2ccccc2c2cc(/C=N/Nc3cc(C)nc4cc5c(cc34)OCO5)ccc21,GI50,[11],4200 nM
O=[N+]([O-])c1cccc(S(=O)(=O)[N-]c2nc3ccccc3nc2-[n+]2ccc(Cc3ccccc3)cc2)c1,IC50,[10],6800 nM
Brc1cc(-c2cc(Br)c(Br)c(Br)c2)cc(Br)c1Br,IC50,[1],200 nM
O=C(CSc1ncn[nH]1)Nc1cccc2c1C(=O)c1ccccc1C2=O,IC50,[12],4000 nM
Cc1coc2c1C(=O)C(=O)c1c-2ccc2c1CCCC2(C)C [TANSHINONE IIA],Kd,[13],0.88 nM
